# Assay results taken from patent publication US6358701B1, “DNA molecules encoding Ctenocephalides felis glutamate gated chloride channels” (Merck & Co., Inc., priority 1997, dated 2002).
# pEC50: −log10 of the molar value. Like-named read-outs stand apart in the source and are kept apart here.
# Experiments:
# [1] = tested on: CfGluCl-1 (C. felis GluCl channel); assay: Two microelectrode voltage clamp of Xenopus oocytes expressing CfGluCl-1; type: cell-based, Ctenocephalides felis; conditions: for ability to activate CfGluCl-1: agonists for other types of ligand-gated chloride channels
# Description: The full-length cDNA encoding CfGluCl-1 in plasmid vector pBluescript (Stratagene, LaJolla, Calif.) is linearized and capped cRNA transcripts are synthesized using appropriate oligonucleotide primers and the mMESSAGE mMACHINE in vitro RNA transcription kit (Ambion). Xenopus laevis oocytes were prepared and injected using standard methods as described (Arena et al., 1991, Mol. Pharmacol. 40: 368-374; Arena et al, 1992, Mol. Brain Res. 15: 339-348). Adult female Xenopus laevis were anesthetized with 0.17% tricaine methanesulfonate and the ovaries were surgically removed and placed in a dish consisting of (mM): NaCl 82.5, KCl 2, MgCl2 1, CaCl2 1.8, HEPES 5 adjusted to pH 7.5 with NaOH (OR-2). Ovarian lobes were broken open, rinsed several times, and gently shaken in OR-2 containing 0.2% collagenase (Sigma, Type IA) for 2-5 hours. When approximately 50% of the follicular layers were removed, Stage V and VI oocytes were selected and placed in media consisting of (mM): NaCl 86, KCl 2, MgCl2 1, CaCl2 1.8, HEPES 5, Na pyruvate 2.5, theophylline 0.5, gentamicin 0.1 adjusted to pH 7.5 with NaOH (ND-96) for […] before injection. For most experiments, oocytes were injected with 10 ng of cRNA in 50 nl of RNase free water. Control oocytes were injected with 50 nl of water. Oocytes were incubated for 1-5 days in ND-96 supplemented with […] gentamycin, 2.5 mM Na pyruvate and 0.5 mM theophylline before recording. Incubations and collagenase digestion were carried out at […].
# Voltage-clamp studies were conducted with the two microelectrode voltage clamp technique using a Dagan CA1 amplifier (Dagan Instruments, Minneapolis, Minn.). The current passing microelectrodes were filled with 0.7M KCl plus 1.7M K3-citrate and the voltage recording microelectrodes were filled with 1.0M KCl. The extracellular solution for most experiments was saline consisting of (mM): NaCl 96, BaCl2 3.5, MgCl2 0.5, CaCl2 0.1, HEPES 5, adjusted to pH 7.5 with NaOH. The extracellular chloride concentration was reduced in some experiments by equimolar replacement of NaCl with the sodium salt of the indicated anion. Experiments were conducted at 21-24° C. Data were acquired using the program Pulse and most analysis was performed with the companion program Pulsefit (Instrutech Instruments, Great Neck, N.Y.) or with Igor Pro (Wavemetrics, Lake Oswego, Oreg.). Data were filtered (fc, −3db) at 1 kHz, unless otherwise indicated.
# FIG. 5A and FIG. 5B show the activation of CfGluCl-1 by glutamate. […] The duration of exposure to glutamate is indicated by the solid bar at top. FIG. 5B shoes the concentration-response curve for glutamate. Peak outward current is plotted vs. glutamate concentration. The solid curve is the best fit to the equation I/Imax={1+(EC50/[glutamate])^n}^−1. […] Agonists for other types of ligand-gated chloride channels were also tested for the ability to activate
# Each curve represents the difference between the current measured with and without 10 μM glutamate. The voltage was ramped from −120 to +60 mV at 1 volt/second. Chloride concentration was reduced from 104 mM to 8.2 mM by equimolar substitution of NaCl by Na-methanesulfonate or Na-gluconate. Each current-voltage relationship was fit to a seventh order polynomial using non-linear least squares analysis and the reversal potential was taken as the x-intercept of this polynomial.
# A single [IVM-PO4] was tested on each oocyte. The ordinate is the maximal current induced by IVM-PO4 normalized by the peak current induced by 100 μM glutamate, a maximally effective concentration. The error bars indicate ±S.E.M. The holding potential was 0 mV for both sets of measurements. The filled circles represent data for CfGluCl-1.
# (1) I=Iivm,max/{1+(EC50/[IVM-PO4])^n}
# [2] = molecular target: DmGluCl1 (Drosophila melanogaster, UniProt Q94900); conditions: holding potential −80 mV; cited from earlier work
# Chain of DmGluCl1 (Q94900 23-456 S345N): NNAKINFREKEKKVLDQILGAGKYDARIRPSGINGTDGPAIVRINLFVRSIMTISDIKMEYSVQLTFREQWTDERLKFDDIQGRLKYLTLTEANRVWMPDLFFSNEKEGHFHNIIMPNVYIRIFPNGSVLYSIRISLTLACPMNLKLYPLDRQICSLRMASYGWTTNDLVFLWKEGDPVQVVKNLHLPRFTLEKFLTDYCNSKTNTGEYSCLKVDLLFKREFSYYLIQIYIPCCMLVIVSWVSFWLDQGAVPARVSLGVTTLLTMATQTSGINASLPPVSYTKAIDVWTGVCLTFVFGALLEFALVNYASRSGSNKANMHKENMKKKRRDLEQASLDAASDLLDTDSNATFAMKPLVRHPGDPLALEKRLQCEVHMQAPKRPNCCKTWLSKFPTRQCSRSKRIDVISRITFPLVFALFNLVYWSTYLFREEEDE
molecule,measurement,setting,value
NCCCC(=O)O [GABA],ability to activate CfGluCl-1,[1],inactive
CC(=O)OCC[N+](C)(C)C [acetylcholine],ability to activate CfGluCl-1,[1],inactive
N[C@@H](CCC(=O)O)C(=O)O [glutamate],pEC50,"[1]; experiment of FIG. 5B, fit to I/Imax={1+(EC50/[glutamate])^n}^−1, read-out: EC50 for activation of CfGluCl-1 (peak outward current vs. concentration)",5.03
NCC(=O)O [glycine],ability to activate CfGluCl-1,[1],inactive
NCCc1c[nH]cn1 [histamine],ability to activate CfGluCl-1,[1],inactive
NCc1cc(=O)[nH]o1 [muscimol],ability to activate CfGluCl-1,[1],inactive
ivermectin phosphate [IVM-PO4],pEC50,[2],7.39
same,"Iivm,max on DmGluCl1",[2],0.35
same,n (exponent of equation (1)) on DmGluCl1,[2],1.2
same,increase in potency,[1]; 0 mV measurements vs. earlier −80 mV data,10 fold
same,agonist activity at the flea GluCl channel encoded by CfGluCl-1,[1]; FIGS. 7A and B,agonist
same,"Iivm,max (maximal current normalized by the peak current induced by 100 μM glutamate)",[1]; holding potential 0 mV,0.718
same,pEC50,"[1]; holding potential 0 mV, fit to equation (1), read-out: EC50 for activation of CfGluCl-1",8.53
